Results reported in patent US20240239781A1, “1H-PYRAZOLE DERIVATIVES AS SIGMA LIGANDS” (ACONDICIONAMIENTO TARRASENSE, priority 2021, published 2024).

Legend:
human σ1 receptor = biological target: T1, human σ1 receptor (Homo sapiens, UniProt Q99720); assay: Human σ1 receptor radioligand assay ([3H](+)-pentazocine, transfected HEK-293 membranes); conditions: class scale, read-out: Binding σ-1 Ki
T1 construct: expressed in transfected cells; host or cells: HEK-293
Description: Transfected HEK-293 membranes (7 μg) were incubated with 5 nM of [^3H](+)-pentazocine in assay buffer containing Tris-HCl 50 mM at pH 8. NBS (non-specific binding) was measured by adding 10 μM haloperidol. The binding of the test compound was measured at either one concentration (% inhibition at 1 or 10 μM) or five different concentrations to determine affinity values (Ki). Plates were incubated at 37° C. for 120 minutes. After the incubation period, the reaction mix was then transferred to MultiScreen HTS, FC plates (Millipore), filtered and plates were washed 3 times with ice-cold 10 mM Tris-HCL (pH7.4). Filters were dried and counted at approximately 40% efficiency in a MicroBeta scintillation counter (Perkin-Elmer) using EcoScint liquid scintillation cocktail.

human σ2/TMEM97 receptor = biological target: T2, human σ2/TMEM97 receptor (Homo sapiens, UniProt Q5BJF2); assay: Binding assay to human σ2/TMEM97 receptor ([3H]-DTG, transfected HEK-293 membranes); conditions: class scale, read-out: Binding σ-2 Ki
T2 construct: expressed in transfected cells; host or cells: HEK-293
T2 sequence (Q5BJF2 whole entry): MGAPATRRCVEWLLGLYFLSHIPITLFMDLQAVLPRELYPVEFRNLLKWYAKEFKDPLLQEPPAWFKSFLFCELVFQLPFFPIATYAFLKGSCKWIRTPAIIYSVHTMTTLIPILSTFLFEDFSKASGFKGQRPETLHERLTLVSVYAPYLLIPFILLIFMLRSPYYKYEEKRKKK
Description: Transfected HEK-293 membranes (15 μg) were incubated with 10 nM [^3H]-1,3-Di-o-tolylguanidine (DTG) in assay buffer containing Tris-HCl 50 mM at pH 8.0. NSB (non-specific binding) was measured by adding 10 μM haloperidol. The binding of the test compound was measured at either one concentration (% inhibition at 1 or 10 μM) or five different concentrations to determine affinity values (Ki). Plates were incubated at 25° C. for 120 minutes. After the incubation period, the reaction mix was transferred to MultiScreen HTS, FC plates (Millipore), filtered and washed 3 times with ice-cold 10 mM Tris-HCL (pH 8.0). Filters were dried and counted at approximately 40% efficiency in a MicroBeta scintillation counter (Perkin-Elmer) using EcoScint liquid scintillation cocktail.

T1 sequence (Q99720 whole entry): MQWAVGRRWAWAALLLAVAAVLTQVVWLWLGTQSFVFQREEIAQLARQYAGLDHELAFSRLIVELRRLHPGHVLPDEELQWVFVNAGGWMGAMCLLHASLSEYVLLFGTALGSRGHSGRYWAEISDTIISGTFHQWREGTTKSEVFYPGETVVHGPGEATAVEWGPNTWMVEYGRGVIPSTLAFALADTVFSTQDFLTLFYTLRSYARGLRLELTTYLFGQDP

Ki (human σ1 receptor) [nM] | Ki (human σ2/TMEM97 receptor) [nM] | SMILES
100 to 500 | > 1000 | CCCN(CCC)CC1CCN(Cc2c(-c3cc(C)on3)nn(C)c2Cl)C1 (stereo not shown) [Example 46, N-((1-((5-Chloro-1-methyl-3-(5-methylisoxazol-3-yl)-1H-pyrazol-4-yl)methyl)pyrrolidin-3-yl)methyl)-N-propylpropan-1-amine]
> 1000 | > 1000 | CCCNCC1CCN(Cc2c(-c3cc(C)on3)nn(C)c2Cl)C1 (stereo not shown) [Example 47, N-((1-((5-Chloro-1-methyl-3-(5-methylisoxazol-3-yl)-1H-pyrazol-4-yl)methyl)pyrrolidin-3-yl)methyl)propan-1-amine]
> 1000 | 100 to 500 | Cc1cc(-c2nn(C)c(Cl)c2CN2CCCC(CNCC(C)C)C2)no1 (stereo not shown) [Example 48, N-((1-((5-Chloro-1-methyl-3-(5-methylisoxazol-3-yl)-1H-pyrazol-4-yl)methyl)piperidin-3-yl)methyl)-2-methylpropan-1-amine]
100 to 500 | > 1000 | Cc1cc(-c2nn(C)c(Cl)c2CN2CCC(CNCC(C)C)C2)no1 (stereo not shown) [Example 49, N-((1-((5-Chloro-1-methyl-3-(5-methylisoxazol-3-yl)-1H-pyrazol-4-yl)methyl)pyrrolidin-3-yl)methyl)-2-methylpropan-1-amine]
100 to 500 | < 100 | Cc1cc(-c2nn(C)c(Cl)c2CN2CCC3(CC2)CCN(CCC(C)(C)C)C3)no1 [Example 50, 3-(5-Chloro-4-((2-(3,3-dimethylbutyl)-2,8-diazaspiro[4.5]decan-8-yl)methyl)-1-methyl-1H-pyrazol-3-yl)-5-methylisoxazole]
< 100 | < 100 | Cc1cc(-c2nn(C)c(Cl)c2CN2CC3(CCN(CCC(C)(C)C)C3)C2)no1 [Example 51, 3-(5-Chloro-4-((6-(3,3-dimethylbutyl)-2,6-diazaspiro[3.4]octan-2-yl)methyl)-1-methyl-1H-pyrazol-3-yl)-5-methylisoxazole]
< 100 | < 100 | Cc1cc(-c2nn(C)c(Cl)c2CN2CCC3(C2)CN(CCC(C)(C)C)C3)no1 [Example 52, 3-(5-Chloro-4-((2-(3,3-dimethylbutyl)-2,6-diazaspiro[3.4]octan-6-yl)methyl)-1-methyl-1H-pyrazol-3-yl)-5-methylisoxazole]
100 to 500 | < 100 | Cc1cc(-c2nn(C)c(Cl)c2CN2CCC3(CCN(CCC(C)(C)C)CC3)CC2)no1 [Example 53, 3-(5-Chloro-4-((9-(3,3-dimethylbutyl)-3,9-diazaspiro[5.5]undecan-3-yl)methyl)-1-methyl-1H-pyrazol-3-yl)-5-methylisoxazole]
< 100 | < 100 | Cc1cc(-c2nn(C)c(Cl)c2CN2CCC3(CCN(CCC(C)(C)C)C3)C2)no1 (stereo not shown) [Example 54, 3-(5-Chloro-4-((7-(3,3-dimethylbutyl)-2,7-diazaspiro[4.4]nonan-2-yl)methyl)-1-methyl-1H-pyrazol-3-yl)-5-methylisoxazole]
> 1000 | 100 to 500 | Cc1cc(-c2nn(C)c(Cl)c2CN2CCCC(CNCc3ccccc3)C2)no1 (stereo not shown) [Example 55, N-Benzyl-1-(1-((5-chloro-1-methyl-3-(5-methylisoxazol-3-yl)-1H-pyrazol-4-yl)methyl)piperidin-3-yl)methanamine]
100 to 500 | 100 to 500 | Cc1cc(-c2nn(C)c(Cl)c2CN2CCC(CNCc3ccccc3)CC2)no1 [Example 56, N-Benzyl-1-(1-((5-chloro-1-methyl-3-(5-methylisoxazol-3-yl)-1H-pyrazol-4-yl)methyl)piperidin-4-yl)methanamine]
500 to 1000 | 100 to 500 | Cc1cc(-c2nn(C)c(Cl)c2CN2CCCC(CNCCc3ccccc3)C2)no1 (stereo not shown) [Example 57, N-((1-((5-Chloro-1-methyl-3-(5-methylisoxazol-3-yl)-1H-pyrazol-4-yl)methyl)piperidin-3-yl)methyl)-2-phenylethanamine]
100 to 500 | < 100 | Cc1cc(-c2nn(C)c(Cl)c2CN2CCCC(CNCCC(C)C)C2)no1 (stereo not shown) [Example 58, N-((1-((5-Chloro-1-methyl-3-(5-methylisoxazol-3-yl)-1H-pyrazol-4-yl)methyl)piperidin-3-yl)methyl)-3-methylbutan-1-amine]
500 to 1000 | 100 to 500 | Cc1cc(-c2nn(C)c(Cl)c2CN2CCCCC(CNCCC(C)C)C2)no1 (stereo not shown) [Example 59, N-((1-((5-Chloro-1-methyl-3-(5-methylisoxazol-3-yl)-1H-pyrazol-4-yl)methyl)azepan-3-yl)methyl)-3-methylbutan-1-amine]

Further lines, the molecule ahead of its results:

SMILES | Ki (human σ1 receptor) [nM] | Ki (human σ2/TMEM97 receptor) [nM]
CC(C)CCNC1CCCCN(Cc2c(-c3cccnc3)nn(C)c2Cl)C1 (stereo not shown) [Example 31, 1-((5-Chloro-1-methyl-3-(pyridin-3-yl)-1H-pyrazol-4-yl)methyl)-N-isopentylazepan-3-amine] | 500 to 1000 | > 1000
CC(C)CCNC1CCCCN(Cc2c(-c3nccn3C)nn(C)c2Cl)C1 (stereo not shown) [Example 32, 1-((5-Chloro-1-methyl-3-(1-methyl-1H-imidazol-2-yl)-1H-pyrazol-4-yl)methyl)-N-isopentylazepan-3-amine] | > 1000 | 100 to 500
Cn1nc(-c2ccon2)c(CN2CCCCC(NCCC(C)(C)C)C2)c1Cl (stereo not shown) [Example 33, 1-((5-Chloro-3-(isoxazol-3-yl)-1-methyl-1H-pyrazol-4-yl)methyl)-N-(3,3-dimethylbutyl)azepan-3-amine] | 100 to 500 | 100 to 500
CC(C)CCNC1CCCCN(Cc2c(-c3ccon3)nn(C)c2Cl)C1 (stereo not shown) [Example 34, 1-((5-Chloro-3-(isoxazol-3-yl)-1-methyl-1H-pyrazol-4-yl)methyl)-N-isopentylazepan-3-amine] | 500 to 1000 | 100 to 500
COc1ccc(-c2nn(C)c(Cl)c2CN2CCCCC(NCCC(C)(C)C)C2)nc1 (stereo not shown) [Example 35, 1-((5-Chloro-3-(5-methoxypyridin-2-yl)-1-methyl-1H-pyrazol-4-yl)methyl)-N-(3,3-dimethylbutyl)azepan-3-amine] | 500 to 1000 | > 1000
COc1ccc(-c2nn(C)c(Cl)c2CN2CCCCC(NCCC(C)C)C2)nc1 (stereo not shown) [Example 36, 1-((5-Chloro-3-(5-methoxypyridin-2-yl)-1-methyl-1H-pyrazol-4-yl)methyl)-N-isopentylazepan-3-amine] | 500 to 1000 | > 1000
Cc1onc(-c2nn(C)c(Cl)c2CN2CCCCC(NCCC(C)C)C2)c1C (stereo not shown) [Example 37, 1-((5-Chloro-3-(4,5-dimethylisoxazol-3-yl)-1-methyl-1H-pyrazol-4-yl)methyl)-N-isopentylazepan-3-amine] | 100 to 500 | 100 to 500
Cc1onc(-c2nn(C)c(Cl)c2CN2CCCCC(NCCC(C)(C)C)C2)c1C (stereo not shown) [Example 38, 1-((5-Chloro-3-(4,5-dimethylisoxazol-3-yl)-1-methyl-1H-pyrazol-4-yl)methyl)-N-(3,3-dimethylbutyl)azepan-3-amine] | 100 to 500 | 100 to 500
CC(C)CCNC1CCCCN(Cc2c(-c3cccc(O)n3)nn(C)c2Cl)C1 (stereo not shown) [Example 39, 6-(5-Chloro-4-((3-(isopentylamino)azepan-1-yl)methyl)-1-methyl-1H-pyrazol-3-yl)pyridin-2-ol] | 500 to 1000 | 100 to 500
CC(C)CCN[C@H]1CCCCN(Cc2c(-c3noc4c3COCC4)nn(C)c2Cl)C1 [Example 40, (S)-1-((5-Chloro-3-(6,7-dihydro-4H-pyrano[3,4-d]isoxazol-3-yl)-1-methyl-1H-pyrazol-4-yl)methyl)-N-isopentylazepan-3-amine] | 100 to 500 | 100 to 500
Cc1cc(-c2nn(C)c(Cl)c2CN2CCC(CNCCC(C)C)CC2)no1 [Example 41, N-((1-((5-Chloro-1-methyl-3-(5-methylisoxazol-3-yl)-1H-pyrazol-4-yl)methyl)piperidin-4-yl)methyl)-3-methylbutan-1-amine] | 100 to 500 | 100 to 500
Cc1cc(-c2nn(C)c(Cl)c2CN2CCC(CN(CC(C)C)CC(C)C)C2)no1 (stereo not shown) [Example 42, N-((1-((5-Chloro-1-methyl-3-(5-methylisoxazol-3-yl)-1H-pyrazol-4-yl)methyl)pyrrolidin-3-yl)methyl)-/-isobutyl-2-methylpropan-1-amine] | > 1000 | 100 to 500
Cc1cc(-c2nn(C)c(Cl)c2CN2CCC(CNCC(C)C)CC2)no1 [Example 43, N-((1-((5-Chloro-1-methyl-3-(5-methylisoxazol-3-yl)-1H-pyrazol-4-yl)methyl)piperidin-4-yl)methyl)-2-methylpropan-1-amine] | 500 to 1000 | 500 to 1000
Cc1cc(-c2nn(C)c(Cl)c2CN2CCC(CNCc3ccccc3)C2)no1 (stereo not shown) [Example 44, N-Benzyl-1-(1-((5-chloro-1-methyl-3-(5-methylisoxazol-3-yl)-1H-pyrazol-4-yl)methyl)pyrrolidin-3-yl)methanamine] | 500 to 1000 | 500 to 1000
Cc1cc(-c2nn(C)c(Cl)c2CN2CCC(CNCCc3ccccc3)C2)no1 (stereo not shown) [Example 45, N-((1-((5-Chloro-1-methyl-3-(5-methylisoxazol-3-yl)-1H-pyrazol-4-yl)methyl)pyrrolidin-3-yl)methyl)-2-phenylethanamine] | 100 to 500 | 100 to 500
